Results taken from PubChem BioAssay (NCI).
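Assay format: 96-well plates, 48-hour exposure. TGI marks complete inhibition of growth.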

How the values were obtained:
Test in all cases: NCI tumour cell line growth inhibition, 48 h
[1] = test system: RXF 393 renal
[2] = test system: LOX IMVI melanoma
[3] = test system: HT29 colon
[4] = test system: OVCAR-5 ovarian
[5] = test system: DMS 273 small cell lung
[6] = test system: EKVX NSCLC
[7] = test system: OVCAR-8 ovarian
[8] = test system: SF-539 CNS
[9] = test system: HOP-18 NSCLC
[10] = test system: SR leukemia
[11] = test system: M19-MEL melanoma
[12] = test system: HL-60(TB) leukemia
[13] = test system: SF-268 CNS
[14] = test system: 786-0 renal
[15] = test system: NCI-H23 lung
[16] = test system: MOLT-4 leukemia
[17] = test system: COLO 205 colon
[18] = test system: RPMI-8226 leukemia
[19] = test system: HCT-116 colon
[20] = test system: SNB-78 CNS
[21] = test system: CCRF-CEM leukemia
[22] = test system: XF 498 CNS
[23] = test system: SK-MEL-28 melanoma
[24] = test system: ACHN renal
[25] = test system: DLD-1 colon
[26] = test system: HCT-15 colon
[27] = test system: OVCAR-4 ovarian
[28] = test system: UACC-62 melanoma
[29] = test system: SK-MEL-5 melanoma
[30] = test system: K-562 leukemia
[31] = test system: SK-MEL-2 melanoma
[32] = test system: HOP-62 NSCLC
[33] = test system: SW-620 colon
[34] = test system: UACC-257 melanoma
[35] = test system: MALME-3M melanoma
[36] = test system: LXFL 529 NSCLC
[37] = test system: M14 melanoma
[38] = test system: IGROV1 ovarian
[39] = test system: A498 renal
[40] = test system: UO-31 renal
[41] = test system: CAKI-1 renal
[42] = test system: NCI-H460 lung
[43] = test system: U251 CNS
[44] = test system: OVCAR-3 ovarian
[45] = test system: HOP-92 NSCLC
[46] = test system: KM20L2 colon
[47] = test system: A549 NSCLC
[48] = test system: KM12 colon
[49] = test system: SN12C renal
[50] = test system: NCI-H522 lung
[51] = test system: SK-OV-3 ovarian
[52] = test system: DMS 114 small cell lung
[53] = test system: SNB-75 CNS
[54] = test system: HCC-2998 colon
[55] = test system: SNB-19 CNS
[56] = test system: TK-10 renal
[57] = test system: SF-295 CNS
[58] = test system: NCI-H226 lung

`CCc1cccc(C)c1NC(=O)CCc1nnc(SC)o1` gave a TGI [1] of over 100 µM, a TGI [2] of over 100 µM and a TGI [3] of over 100 µM. For the same compound, the TGI [4] was over 100 µM, the TGI [5] was over 100 µM and the TGI [6] was over 100 µM. The TGI [7] was over 100 µM, the TGI [8] was over 100 µM and the TGI [9] was over 100 µM. For the same compound, the TGI [10] was over 100 µM, the TGI [11] was over 100 µM and the TGI [12] was over 100 µM. For the same compound, the TGI [13] was over 100 µM, the TGI [14] was over 100 µM and the TGI [15] was over 100 µM. The TGI [16] was over 100 µM, the TGI [17] was over 100 µM and the TGI [18] was over 100 µM. The TGI [19] was over 100 µM, the TGI [20] was over 100 µM and the TGI [21] was over 100 µM. The TGI [22] was over 100 µM, the TGI [23] was over 100 µM and the TGI [24] was over 100 µM. It also gave a TGI [25] of over 100 µM, a TGI [26] of over 100 µM and a TGI [27] of over 100 µM. For the same compound, the TGI [28] was over 100 µM, the TGI [29] was over 100 µM and the TGI [30] was over 100 µM. It also gave a TGI [31] of over 100 µM, a TGI [32] of over 100 µM and a TGI [33] of over 100 µM. For the same compound, the TGI [34] was over 100 µM, the TGI [35] was over 100 µM and the TGI [36] was over 100 µM. For the same compound, the TGI [37] was over 100 µM, the TGI [38] was over 100 µM and the TGI [39] was over 100 µM. For the same compound, the TGI [40] was over 100 µM, the TGI [41] was over 100 µM and the TGI [42] was over 100 µM. For the same compound, the TGI [43] was over 100 µM, the TGI [44] was over 100 µM and the TGI [45] was over 100 µM. For the same compound, the TGI [46] was over 100 µM, the TGI [47] was over 100 µM and the TGI [48] was over 100 µM. The TGI [49] was over 100 µM, the TGI [50] was over 100 µM and the TGI [51] was over 100 µM. For the same compound, the TGI [52] was over 100 µM, the TGI [53] was over 100 µM and the TGI [54] was over 100 µM. For the same compound, the TGI [55] was over 100 µM, the TGI [56] was over 100 µM and the TGI [57] was over 100 µM.

Compound `Cc1c(Cl)ccc2c1NC(=O)C2(O)CC(=O)c1cccc2ccccc12` (centres undefined) has a TGI [1] of over 100 µM, a TGI [2] of over 100 µM and a TGI [3] of over 100 µM. For the same compound, the TGI [4] was over 100 µM, the TGI [5] was over 100 µM and the TGI [6] was over 100 µM. For the same compound, the TGI [7] was over 100 µM, the TGI [8] was over 100 µM and the TGI [9] was over 100 µM. It also gave a TGI [10] of 63.1 µM, a TGI [58] of over 100 µM and a TGI [11] of 37.6 µM. It also gave a TGI [12] of 42.3 µM, a TGI [13] of over 100 µM and a TGI [14] of over 100 µM. The TGI [15] was over 100 µM, the TGI [16] was over 100 µM and the TGI [17] was over 100 µM. The TGI [18] was over 100 µM, the TGI [19] was over 100 µM and the TGI [20] was over 100 µM. The TGI [21] was over 100 µM, the TGI [22] was over 100 µM and the TGI [23] was over 100 µM. For the same compound, the TGI [24] was over 100 µM, the TGI [25] was over 100 µM and the TGI [26] was over 100 µM. The TGI [27] was 71.3 µM, the TGI [28] was over 100 µM and the TGI [29] was over 100 µM. It also gave a TGI [30] of over 100 µM, a TGI [31] of over 100 µM and a TGI [32] of over 100 µM. It also gave a TGI [33] of over 100 µM, a TGI [34] of over 100 µM and a TGI [35] of over 100 µM. It also gave a TGI [36] of over 100 µM, a TGI [37] of over 100 µM and a TGI [38] of over 100 µM. The TGI [39] was over 100 µM, the TGI [40] was over 100 µM and the TGI [41] was over 100 µM. For the same compound, the TGI [42] was over 100 µM, the TGI [43] was over 100 µM and the TGI [44] was over 100 µM. It also gave a TGI [46] of over 100 µM, a TGI [47] of over 100 µM and a TGI [48] of over 100 µM. The TGI [49] was over 100 µM, the TGI [50] was over 100 µM and the TGI [51] was over 100 µM. It also gave a TGI [52] of 55.8 µM, a TGI [53] of over 100 µM and a TGI [54] of over 100 µM. It also gave a TGI [55] of over 100 µM, a TGI [56] of over 100 µM and a TGI [57] of over 100 µM.
